Values of other authors as cited in patent US20050158403A1, “Preparation of chinese herbal composite recipe used in horticulture” (priority 2004, published 2005).

Tests used:
B-streptococcus = settings: 1% matrine; in vitro
Proteus = settings: 1% matrine; in vitro
Staphylococcus aureaus = settings: 1% matrine; in vitro
E. Coli = settings: 1% matrine; in vitro
Shigella = settings: 1% matrine; in vitro

Molecule: CC[C@@H]1[C@H]2CCCCN3[C@H]2[C@H](C[C@H]3[C@@H]2C[C@H](C)C(=O)O2)[C@@H]2[C@H]1OC(=O)[C@H]2C [tuberostemonine]
- effect on Ascarid (Ascarid): tuberostemonine can paralyze

Molecule: O=C1CCC[C@@H]2[C@H]3CCCN4CCC[C@@H](CN12)[C@@H]34 [matrine]
- bacteria inhibition effects (B-streptococcus): bacteria inhibition effects
- bacteria inhibition effects (Proteus): bacteria inhibition effects
- bacteria inhibition effects (Staphylococcus aureaus): bacteria inhibition effects
- bacteria inhibition effects (E. Coli): bacteria inhibition effects
- bacteria inhibition effects (Shigella): bacteria inhibition effects

Molecule: discorea saponin
- effect to bacteria (bacteria): but no effect to bacteria.
